What all share (format): cell-based
One test has as its target T1, human TLR8 (Homo sapiens, UniProt Q9NR97).
T1 construct: host or cells: HEK-Blue cells (human HEK) co-expressing TLR8 and an NF-kB/AP1-inducible SEAP reporter
T1 sequence (Q9NR97 27-1041): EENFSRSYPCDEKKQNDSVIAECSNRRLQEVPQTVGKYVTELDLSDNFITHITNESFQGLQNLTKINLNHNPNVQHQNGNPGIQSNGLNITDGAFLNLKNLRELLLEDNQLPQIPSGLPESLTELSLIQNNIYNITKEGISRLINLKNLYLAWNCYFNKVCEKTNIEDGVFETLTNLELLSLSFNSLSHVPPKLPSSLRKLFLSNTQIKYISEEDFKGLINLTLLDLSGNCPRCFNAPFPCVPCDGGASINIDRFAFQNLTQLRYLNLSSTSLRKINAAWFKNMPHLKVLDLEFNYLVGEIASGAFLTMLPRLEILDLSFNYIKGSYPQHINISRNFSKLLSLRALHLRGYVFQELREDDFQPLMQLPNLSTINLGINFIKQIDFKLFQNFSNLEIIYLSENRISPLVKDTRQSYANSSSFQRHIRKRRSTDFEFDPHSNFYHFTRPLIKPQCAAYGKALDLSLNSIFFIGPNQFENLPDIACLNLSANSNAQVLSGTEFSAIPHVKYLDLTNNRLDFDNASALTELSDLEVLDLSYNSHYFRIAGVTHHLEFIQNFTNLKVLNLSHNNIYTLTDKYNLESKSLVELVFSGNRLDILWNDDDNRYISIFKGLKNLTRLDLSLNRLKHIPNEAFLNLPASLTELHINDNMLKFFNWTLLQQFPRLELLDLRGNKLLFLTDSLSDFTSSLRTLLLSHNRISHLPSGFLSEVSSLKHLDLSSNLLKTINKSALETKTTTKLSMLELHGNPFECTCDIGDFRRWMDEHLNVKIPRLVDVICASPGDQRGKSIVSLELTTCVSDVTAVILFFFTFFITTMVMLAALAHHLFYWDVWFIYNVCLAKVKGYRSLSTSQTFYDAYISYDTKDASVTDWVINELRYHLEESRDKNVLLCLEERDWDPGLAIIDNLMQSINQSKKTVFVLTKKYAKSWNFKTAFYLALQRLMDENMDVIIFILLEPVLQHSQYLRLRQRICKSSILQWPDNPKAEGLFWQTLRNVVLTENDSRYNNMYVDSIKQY
Nature of the test: In vitro human TLR8 reporter assay (HEK-Blue cells, NF-kB/AP1-inducible SEAP). The settings on record: TLR8 agonist EC50, HEK-Blue TLR8 NF-kB-SEAP reporter cells. Here is the method:
(§1) Logarithmically-growing human HEK-Blue cells co-expressing a TLR7 or TLR8 gene and a NF-kB/AP1-inducible SEAP (secreted embryonic alkaline phosphatase; Invivogen, San Diego, CA) reporter gene are added to individual wells of a 384-well plate (15,000 cells per 20 μL per well) and maintained for 24 h at 37° C., 5% CO2. Test compounds or DMSO are distributed to separate wells the next day using acoustic liquid handling technology (100 nL per well) and cells are subsequently incubated for 18 h at 37° C., 5% CO2. Cellular SEAP production is measured using an Envision plate reader instrument thirty minutes after adding freshly-made Quanti-Blue reagent (prepared by following manufacturer instructions; Invivogen, San Diego, CA) to the HEK-Blue TLR Nf-kB-SEAP cell reactions. All EC50 values (half-maximal effective concentration) are determined using proprietary data analysis software. Normalized EC50 value=absolute value determined by setting 100% Ymax using a reference standard RLU (relative light unit) values from cells treated with 50 μM of the reference standard.
On the technique in general: In a reporter assay the amount or activity of a reporter protein is the signal.

In a further test the target is T2, NLRP3 (Homo sapiens, UniProt Q96P20).
T2 construct: host or cells: PMA-differentiated THP-1 cells
T2 sequence (Q96P20 whole entry): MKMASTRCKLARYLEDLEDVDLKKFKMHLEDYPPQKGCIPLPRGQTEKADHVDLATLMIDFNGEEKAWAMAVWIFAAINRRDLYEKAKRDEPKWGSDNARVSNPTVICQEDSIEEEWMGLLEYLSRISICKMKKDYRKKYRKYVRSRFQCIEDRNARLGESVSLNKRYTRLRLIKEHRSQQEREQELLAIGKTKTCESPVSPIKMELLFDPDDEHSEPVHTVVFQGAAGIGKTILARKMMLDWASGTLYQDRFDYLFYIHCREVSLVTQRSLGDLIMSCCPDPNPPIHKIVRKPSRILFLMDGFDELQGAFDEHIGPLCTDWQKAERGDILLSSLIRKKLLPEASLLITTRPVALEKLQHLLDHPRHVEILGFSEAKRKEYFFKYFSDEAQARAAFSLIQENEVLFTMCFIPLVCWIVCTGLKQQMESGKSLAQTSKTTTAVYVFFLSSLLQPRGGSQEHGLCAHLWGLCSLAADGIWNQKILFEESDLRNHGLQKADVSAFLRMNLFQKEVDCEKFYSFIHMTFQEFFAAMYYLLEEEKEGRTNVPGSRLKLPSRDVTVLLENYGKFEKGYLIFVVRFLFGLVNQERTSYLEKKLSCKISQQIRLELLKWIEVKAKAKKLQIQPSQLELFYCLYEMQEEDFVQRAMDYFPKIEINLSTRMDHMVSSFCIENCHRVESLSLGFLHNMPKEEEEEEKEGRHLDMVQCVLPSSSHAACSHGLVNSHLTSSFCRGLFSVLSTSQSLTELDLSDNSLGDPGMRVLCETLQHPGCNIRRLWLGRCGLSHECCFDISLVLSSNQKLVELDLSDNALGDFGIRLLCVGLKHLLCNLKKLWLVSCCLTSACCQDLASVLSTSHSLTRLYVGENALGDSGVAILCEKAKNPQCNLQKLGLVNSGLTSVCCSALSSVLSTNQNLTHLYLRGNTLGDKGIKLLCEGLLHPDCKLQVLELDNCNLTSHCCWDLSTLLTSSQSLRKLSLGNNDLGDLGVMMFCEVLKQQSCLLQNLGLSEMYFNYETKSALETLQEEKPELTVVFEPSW
In words: Measurement of IL-1β production (NLRP3 hIL1β EC50), PMA-differentiated THP-1 cells. The conditions noted are these: human IL-1β production; assayed using one or more of the described procedures. Here is the method: THP-1 cells were purchased from the American Type Culture Collection and sub-cultured according to instructions from the supplier. Prior to experiments, cells were cultured in RPMI 1640 containing 10% heat inactivated FBS, penicillin (100 units/ml) and streptomycin (100 μg/ml), and maintained in log phase prior to experimental setup. Prior to the experiment THIP-1 were treated with PMA (Phorbol 12-myristate 13-acetate) (10 μg/ml) for 24 hours. The day of the experiment the media was removed and attaching cells were treated with trypsin for 2 minutes, cells were then collected, washed with PBS (phosphate buffer saline), spin down, resuspended in 2% heat inactivated FBS with RPMI at a concentration of 1×10^6 cells/ml, and 100 μl was plated in a 96 well plate. Compounds were dissolved in dimethyl sulfoxide (DMSO) and added to the culture medium to achieve desired concentration (e.g. 100, 30, 10, 3, 1, 0.3 or 0.1 μM). Cells were incubated with compounds for 4 hours. Cell free supernatant was collected and the production of IL-1β was evaluated by ELISA. A vehicle only control was run concurrently with each experiment. Final DMSO concentration was 1%.
THP-1 cells were purchased from the American Type Culture Collection and sub-cultured according to instructions from the supplier. Prior to experiments, cells were cultured in RPMI 1640 containing 10% heat inactivated FBS, penicillin (100 units/ml), streptomycin (100 μg/ml), HEPES (10 mM) and sodium pyruvate (1 mM) and maintained in log phase prior to experimental setup. Prior to the experiment, THP-1 cells were treated with PMA (Phorbol 12-myristate 13-acetate) (20 μg/ml) overnight. The day of the experiment, the media was removed and attached cells were treated with trypsin for 2 minutes, cells were then collected, washed with PBS (phosphate buffer saline), pelleted by centrifugation and resuspended in 2% heat inactivated FBS with RPMI at a concentration of 50,000 cells/well in a 384 well plate. Cell free supernatant was collected and the production of IL-1β was evaluated by ELISA. Compounds were dissolved in dimethyl sulfoxide (DMSO) and added to the culture medium to achieve desired concentration (e.g. 100, 30, 10, 3, 1, 0.3 or 0.1 μM). Cells were incubated with compounds for 2 hours. A vehicle only control was run concurrently with each experiment. Final DMSO concentration was 1%.
Serial dilutions of compounds in DMSO were added to low volume 384 well plates at 100 nl/well using an ECHO 550 acoustic dispenser (Labcyte) to achieve final starting concentration of 10 μM in assay.
THP-1 cells in RPMI (Gibco, 11875) media with 10% FBS at a density of 1×10^6 cell/ml in a T175 flask were treated with a final concentration of phorbol 12-myristate 13-acetate (PMA) (Sigma,P1585) of 50 ng/ml overnight at 37° C. at 5% CO2 for differentiation. Cells were harvested the next day after rinsing well with dPBS using 0.5% trypsin. A cell solution was prepared of 1×10^6 cells/ml for 50,000 cells in 50 μl/well in RPMI media with 2% FBS. Cells were plated using a multichannel pipette onto the compound dilutions in Greiner, 384 well, black clear bottom tissue culture treated plates (781090). The plates were incubated in 37° C. incubator at 5% CO2 for 2 hours.
After the 2 hour incubation, the cell plates were spun in the centrifuge for 5 minutes at 1200 rpm. Using the Felix (CyBio), 8 μl of the supernatant was transferred to 384 well, low volume, white proxy plates. (Perkin Elmer, 6008230). A human IL1beta hTRF kit was used to analyze the supernatant (CISBIO, 62HIL1BPEG). The kit instructions were followed for preparing the IL1Beta standard curve and then the antibodies from the kit were diluted 1:40 rather than 1:20 as kit instructed. Once combined, the antibodies were added across the plates, 5 μl/well. The plates were sealed and incubated at 4° C. overnight. The plates were then read on the Perkin Elmer EnVision at 665/615 nm using the hTRF laser.

The target in a further test is T3, human TLR7 (Homo sapiens, UniProt Q9NYK1).
T3 construct: host or cells: HEK-Blue cells (human HEK) co-expressing TLR7 and an NF-kB/AP1-inducible SEAP reporter
T3 sequence (Q9NYK1 27-1049): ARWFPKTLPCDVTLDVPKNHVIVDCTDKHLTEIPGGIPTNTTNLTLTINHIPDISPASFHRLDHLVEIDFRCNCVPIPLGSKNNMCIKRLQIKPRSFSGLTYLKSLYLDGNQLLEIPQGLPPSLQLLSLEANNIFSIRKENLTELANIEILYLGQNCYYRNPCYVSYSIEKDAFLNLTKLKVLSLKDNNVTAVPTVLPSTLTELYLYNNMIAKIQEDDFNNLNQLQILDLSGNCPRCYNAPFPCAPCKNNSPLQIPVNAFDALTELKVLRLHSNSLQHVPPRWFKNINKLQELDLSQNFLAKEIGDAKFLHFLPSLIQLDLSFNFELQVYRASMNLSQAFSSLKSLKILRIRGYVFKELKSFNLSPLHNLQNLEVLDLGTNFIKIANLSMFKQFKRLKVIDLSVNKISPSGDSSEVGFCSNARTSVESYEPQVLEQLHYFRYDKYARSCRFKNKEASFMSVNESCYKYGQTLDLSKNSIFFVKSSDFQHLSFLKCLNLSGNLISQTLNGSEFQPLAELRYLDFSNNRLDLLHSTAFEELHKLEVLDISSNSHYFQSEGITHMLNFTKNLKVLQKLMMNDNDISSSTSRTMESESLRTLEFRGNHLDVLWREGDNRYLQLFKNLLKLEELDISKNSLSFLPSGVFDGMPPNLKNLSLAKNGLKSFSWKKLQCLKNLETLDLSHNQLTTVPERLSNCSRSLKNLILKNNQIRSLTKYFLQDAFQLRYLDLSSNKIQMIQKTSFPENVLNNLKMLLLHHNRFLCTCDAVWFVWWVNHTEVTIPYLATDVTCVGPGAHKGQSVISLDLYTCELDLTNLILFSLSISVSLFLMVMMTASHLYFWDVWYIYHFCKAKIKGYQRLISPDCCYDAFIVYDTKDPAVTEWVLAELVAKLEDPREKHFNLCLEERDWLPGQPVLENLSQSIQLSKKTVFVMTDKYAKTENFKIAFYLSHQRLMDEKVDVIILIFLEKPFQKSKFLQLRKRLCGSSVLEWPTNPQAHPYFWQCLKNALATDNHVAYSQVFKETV
Nature of the test: In vitro human TLR7 reporter assay (HEK-Blue cells, NF-kB/AP1-inducible SEAP). The settings on record: TLR7 agonist EC50, HEK-Blue TLR7 NF-kB-SEAP reporter cells. Here is the method:
as §1

In patent publication US12492200B2, “NLRP3 modulators” (INNATE TUMOR IMMUNITY, INC., priority 2020, dated 2025) one finds EC50 data, which are given here for 13 molecules.

The term EC50 denotes the concentration needed to bring the measured effect to its halfway point. High values mean lower potency in that assay, low ones higher potency in that assay. `CC(C)CC(=O)N1CCC[C@H]1Cc1nc2c(N)nc3cc(-c4cc[nH]n4)ccc3c2[nH]1` [Example 87]: the EC50 on human TLR8 amounted to 77 µM; at NLRP3, 4.3 µM.
Regarding `Nc1nc2cc(-c3cc[nH]n3)ccc2c2[nH]c([C@H]3CCCN(C(=O)Cc4ccccc4)C3)nc12` [Example 40], the 50% effective concentration (EC50) at human TLR7 stood at 58 µM; on NLRP3, 3.8 µM.
Turning to `CC(C)(C)C(=O)N1CCC[C@H](c2nc3c(N)nc4cc(-c5cc[nH]n5)ccc4c3[nH]2)C1` [Example 28], the EC50 at human TLR8 is 47 µM; on NLRP3, 1.2 µM.
The like results for `CC(C)(C)OC(=O)N1CCC[C@H](c2nc3c(N)nc4cc(-c5cc[nH]n5)ccc4c3[nH]2)C1` [Example 1, tert-Butyl (S)-3-(4-amino-7-(1H-pyrazol-3-yl)-1H-imidazo[4,5-c]quinolin-2-yl)piperidine-1-carboxylate] were, in that order, 10 µM and 0.33 µM.
As to `N#CC1(C(=O)N2CCC[C@H](c3nc4c(N)nc5cc(-c6cc[nH]n6)ccc5c4[nH]3)C2)CCCC1` [Example 39], the EC50 was determined as 35 µM on human TLR7 and 2.5 µM at NLRP3.
Turning to `N#CC1(C(=O)N2CCC[C@H](c3nc4c(N)nc5cc(-c6cc[nH]n6)ccc5c4[nH]3)C2)CC1` [Example 3, (S)-1-(3-(4-Amino-7-(1H-pyrazol-3-yl)-1H-imidazo[4,5-c]quinolin-2-yl)piperidine-1-carbonyl)cyclopropane-1-carbonitrile], the EC50 on human TLR7 is 0.62 µM; on NLRP3, 0.98 µM.
As to `N#CC1(C(=O)N2CCC[C@@H](c3nc4c(N)nc5cc(-c6cc[nH]n6)ccc5c4[nH]3)C2)CCCC1` [Example 70], the EC50 was 57 µM on human TLR7 and 3.9 µM at NLRP3.
In the case of `CC(C)(C)OC(=O)N1CCC[C@@H](c2nc3c(N)nc4cc(-c5cc[nH]n5)ccc4c3[nH]2)C1` [Example 6, tert-Butyl (R)-3-(4-amino-7-(1H-pyrazol-3-yl)-1H-imidazo[4,5-c]quinolin-2-yl)piperidine-1-carboxylate], the results for the EC50 on human TLR8 and at NLRP3 were 10 µM and 0.36 µM, respectively.
In the case of `CCn1c([C@H]2CCCN(C(=O)C3(C#N)CC3)C2)nc2c(N)nc3cc(-c4cc[nH]n4)ccc3c21` [Example 45], the EC50 on NLRP3 was found to be 0.11 µM.
On the same count and under the same terms, as for `N#CC1(C(=O)N2CCC[C@H]2Cc2nc3c(N)nc4cc(-c5cc[nH]n5)ccc4c3[nH]2)CCCC1` [Example 95], the figure is 6.5 µM.
For the molecule `Nc1nc2cc(-c3cc[nH]n3)ccc2c2[nH]c([C@@H]3CCCN(C(=O)C4CC4(F)F)C3)nc12` (stereo partly shown) [Example 63], at NLRP3, the EC50 is 6.6 µM.
As for `N#CC1(C(=O)N2CCC[C@H](c3nc4c(N)nc5cc(-c6cc[nH]n6)ccc5c4[nH]3)C2)CCCCC1` [Example 38], the EC50 was 17 µM on human TLR8 and 2 µM at NLRP3.
In turn, `CC(C)(C)OC(=O)N1CCC[C@H]1Cc1nc2c(N)nc3cc(-c4cc[nH]n4)ccc3c2[nH]1` [Example 16, tert-Butyl (S)-2-((4-amino-7-(1H-pyrazol-3-yl)-1H-imidazo[4,5-c]quinolin-2-yl)methyl)pyyrolidine-1-carboxylate] displayed an EC50 at NLRP3 of 3.7 µM.
